# Source: the supplement of paper PMC10307832
# What was measured:
# Experiment in all cases: relative viability (nuclei count vs DMSO), 5 days (fraction); higher = more cells survive
# CUDC-101 + Pemetrexed = compound: C#Cc1cccc(Nc2ncnc3cc(OC)c(OCCCCCCC(=O)NO)cc23)c1 [CUDC-101] + Nc1nc2[nH]cc(CCc3ccc(C(=O)N[C@@H](CCC(=O)O)C(=O)O)cc3)c2c(=O)[nH]1 [Pemetrexed] (partner 0.2 µM)
# In short: (§1)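 Medians of duplicate plates are given as relative viability. That measure is the nuclei count in treated wells divided by the count in vehicle wells. Counts were taken on 4× images of lung cancer cell lines in 1536-well plates, 5 days after pin-tool dosing the day after seeding with one drug alone or a fixed anchor-drug dose plus five library-drug doses (not always all listed) in √10 steps.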
# [1] = compound: C1=CC=C2C(=C1)N=C(S2)C(C#N)C3=NC(=NC=C3)NCCC4=CN=CC=C4 + CC(=O)Nc1cccc(-n2c(=O)n(C3CC3)c(=O)c3c(Nc4ccc(I)cc4F)n(C)c(=O)c(C)c32)c1 [Trametinib] (partner 0.02 µM)
# In short: as §1
# [2] = compound: C1=CC=C2C(=C1)N=C(S2)C(C#N)C3=NC(=NC=C3)NCCC4=CN=CC=C4 + CC1(C)CCC(c2ccc(Cl)cc2)=C(CN2CCN(c3ccc(C(=O)NS(=O)(=O)c4ccc(N[C@H](CCN5CCOCC5)CSc5ccccc5)c(S(=O)(=O)C(F)(F)F)c4)cc3)CC2)C1 [Navitoclax] (partner 0.5 µM)
# In short: as §1
# NVP-TAE684 + Alpelisib = compound: COc1cc(N2CCC(N3CCN(C)CC3)CC2)ccc1Nc1ncc(Cl)c(Nc2ccccc2S(=O)(=O)C(C)C)n1 [NVP-TAE684] + Cc1nc(NC(=O)N2CCC[C@H]2C(N)=O)sc1-c1ccnc(C(C)(C)C(F)(F)F)c1 [Alpelisib] (partner 2 µM)
# In short: as §1
Cell Line,relative viability (CUDC-101 + Pemetrexed; first compound 0.01 µM),relative viability (CUDC-101 + Pemetrexed; first compound 0.03162 µM),relative viability (CUDC-101 + Pemetrexed; first compound 0.1 µM),relative viability (CUDC-101 + Pemetrexed; first compound 0.3162 µM),relative viability (CUDC-101 + Pemetrexed; first compound 1 µM),relative viability ([1]; first compound 0.005 µM),relative viability ([1]; first compound 0.01581 µM),relative viability ([1]; first compound 0.05 µM),relative viability ([1]; first compound 0.1581 µM),relative viability ([1]; first compound 0.5 µM),relative viability ([2]; first compound 0.005 µM),relative viability ([2]; first compound 0.01581 µM),relative viability ([2]; first compound 0.05 µM),relative viability ([2]; first compound 0.1581 µM),relative viability ([2]; first compound 0.5 µM),relative viability (NVP-TAE684 + Alpelisib; first compound 0.2 µM),relative viability (NVP-TAE684 + Alpelisib; first compound 0.6325 µM),relative viability (NVP-TAE684 + Alpelisib; first compound 2 µM)
NCI-H1755,0.425,0.42,0.441,0.407,0.384,0.764,0.736,0.746,0.848,0.761,0.968,1.1,1,1.15,0.948,0.692,1,0.771
NCI-H1792,0.856,0.787,0.915,0.721,0.581,–,0.44,0.421,0.387,0.385,–,0.571,0.631,0.961,0.451,0.647,0.718,0.684
NCI-H1793,0.75,0.777,0.663,0.889,0.494,–,0.397,0.423,0.475,0.488,0.31,0.398,0.519,0.456,0.509,0.78,0.637,0.436
NCI-H1915,0.495,0.45,0.45,0.497,0.455,–,0.318,0.304,0.329,0.305,0.802,0.805,0.762,0.77,0.775,1.03,1.13,0.963
NCI-H1944,0.62,0.615,0.597,0.582,0.43,0.429,0.463,0.379,0.405,0.398,1.05,1.06,0.983,1.06,1.04,0.786,0.797,0.691
NCI-H1975,0.27,0.283,0.296,0.277,0.313,0.377,0.362,0.293,0.414,0.329,0.852,1.15,1.03,1.18,0.695,0.703,0.545,0.235
NCI-H1993,0.586,0.616,0.637,0.606,0.517,0.374,0.516,0.458,0.514,0.466,0.911,0.802,0.896,0.929,0.81,–,0.7,0.696
NCI-H2009,1.05,1.02,1.02,0.994,0.997,0.26,0.264,0.26,0.314,0.334,1.13,1.17,1.14,1.22,1.21,1.11,1.14,0.927
NCI-H2023,0.255,0.298,0.201,0.233,0.183,0.602,0.532,0.547,0.538,0.489,0.971,0.979,0.948,1.13,0.707,0.589,0.537,0.308
NCI-H2085,0.779,0.665,0.89,0.959,0.63,0.528,0.652,0.521,0.576,0.481,0.946,1.09,1.09,1.15,0.981,0.934,0.897,0.712
NCI-H2087,0.681,0.699,0.648,0.605,0.678,0.222,0.201,0.203,0.212,0.186,0.986,1.01,1.16,1,0.927,1.07,1.04,1.01
NCI-H2126,0.635,0.659,0.761,0.687,0.529,0.536,0.613,0.559,0.546,0.58,0.91,0.913,0.782,0.831,0.842,0.756,0.811,0.65
NCI-H2170,0.281,0.257,0.24,0.234,0.254,0.623,0.924,0.884,1.04,0.655,–,0.587,0.59,0.626,0.566,0.702,0.789,0.672
NCI-H2228,0.352,0.359,0.333,0.392,0.346,0.357,0.447,0.512,0.526,0.46,0.915,1.39,0.827,0.997,0.954,0.381,0.255,0.153
NCI-H2347,0.458,0.418,0.434,0.479,0.405,0.282,0.268,0.296,0.3,0.267,0.727,0.891,0.834,0.827,0.735,1.14,1.07,0.906
NCI-H2405,1.07,1,1.05,1.17,0.967,0.582,0.645,0.63,0.643,0.599,0.828,0.936,0.815,0.862,0.859,0.835,0.662,0.374
NCI-H3122,0.19,0.21,0.191,0.209,0.22,0.178,0.238,0.221,0.216,0.197,0.935,1.04,0.984,1.04,1.01,0.28,0.197,0.189
